Tests used:
[1] = Inhibition of Candida albicans AHAS catalytic subunit using pyruvate as substrate measured after 30 mins by colorimetric method
Candida albicans [2] = test: Antifungal activity against Candida albicans SC5314 cultured in YNB media after 24 hrs by broth microdilution method; format: functional; settings: SC5314, 24 h
Candida albicans [3] = test: Antifungal activity against Candida albicans SC5314 cultured in RPMI 1640 media after 24 hrs by broth microdilution method; format: functional; settings: SC5314, 24 h
Candida parapsilosis [4] = test: Antifungal activity against Candida parapsilosis ATCC 22019 cultured in YNB media after 48 hrs by broth microdilution method; format: functional; settings: Lodderomyces parapsilosis, ATCC 22019, 48 h
Candida albicans [5] = test: Antifungal activity against Candida albicans SC5314 cultured in YNB media after 48 hrs by broth microdilution method; format: functional; settings: SC5314, 48 h
Candida albicans [6] = test: Antifungal activity against fluconazole-resistant Candida albicans isolate g5 cultured in YNB media after 48 hrs by broth microdilution method; format: functional; settings: isolate g5, 48 h
Candida albicans [7] = test: Antifungal activity against Candida albicans SC5314 cultured in YNB media after 72 hrs by broth microdilution method; format: functional; settings: SC5314, 72 h
Candida albicans [8] = test: Antifungal activity against fluconazole-resistant Candida albicans isolate 17 cultured in YNB media after 72 hrs by broth microdilution method; format: functional; settings: isolate 17, 72 h
Saccharomyces cerevisiae [9] = test: Antifungal activity against Saccharomyces cerevisiae SC XH1549 cultured in YNB media after 72 hrs by broth microdilution method; format: functional; settings: SC XH1549, 72 h
Candida albicans [10] = test: Antifungal activity against fluconazole-resistant Candida albicans isolate 17 cultured in YNB media after 24 hrs by broth microdilution method; format: functional; settings: isolate 17, 24 h
Candida parapsilosis [11] = test: Antifungal activity against Candida parapsilosis ATCC 22019 cultured in YNB media after 72 hrs by broth microdilution method; format: functional; settings: Lodderomyces parapsilosis, ATCC 22019, 72 h
Candida albicans [12] = test: Antifungal activity against fluconazole-resistant Candida albicans isolate g5 cultured in YNB media after 72 hrs by broth microdilution method; format: functional; settings: isolate g5, 72 h
Saccharomyces cerevisiae [13] = test: Antifungal activity against Saccharomyces cerevisiae SC XH1549 cultured in YNB media after 48 hrs by broth microdilution method; format: functional; settings: SC XH1549, 48 h
Candida albicans [14] = test: Antifungal activity against fluconazole-resistant Candida albicans isolate g5 cultured in YNB media after 24 hrs by broth microdilution method; format: functional; settings: isolate g5, 24 h
Candida albicans [15] = test: Antifungal activity against fluconazole-resistant Candida albicans isolate 17 cultured in YNB media after 48 hrs by broth microdilution method; format: functional; settings: isolate 17, 48 h
Candida parapsilosis [16] = test: Antifungal activity against Candida parapsilosis ATCC 22019 cultured in YNB media after 24 hrs by broth microdilution method; format: functional; settings: Lodderomyces parapsilosis, ATCC 22019, 24 h
Saccharomyces cerevisiae [17] = test: Antifungal activity against Saccharomyces cerevisiae SC XH1549 cultured in YNB media after 24 hrs by broth microdilution method; format: functional; settings: SC XH1549, 24 h

Row | MIC (Candida albicans [2]) [µg/mL] | MIC (Candida albicans [3]) [µg/mL] | SMILES | Ki [1] [nM] | pKi [1] | other results
1 | 10 | 25 | CCOC(=O)c1ccccc1OS(=O)(=O)[N-]C(=O)Nc1nc(C)cc(OC)n1.[Na+] | 7.1 | 8.16 | –
2 | > 100 | > 100 | COc1cc(Br)nc(NC(=O)[N-]S(=O)(=O)Oc2ccccc2C(=O)OCCI)n1.[Na+] | 980 | 6.01 | –
3 | > 100 | > 100 | COc1cc(I)nc(NC(=O)[N-]S(=O)(=O)Oc2ccccc2C(=O)OCCCl)n1.[Na+] | 740 | 6.13 | –
4 | > 100 | > 100 | Cc1cc(Cl)nc(NC(=O)[N-]S(=O)(=O)Oc2ccccc2C(=O)Oc2ccccc2)n1.[Na+] | > 50000 | – | –
5 | 40 | > 100 | CCOC(=O)c1ccccc1OS(=O)(=O)[N-]C(=O)Nc1nc(Cl)cc(OC)n1.[Na+] | 7.5 | 8.12 | –
6 | > 100 | > 100 | COc1cc(Br)nc(NC(=O)[N-]S(=O)(=O)Oc2ccccc2OCCI)n1.[Na+] | 478 | 6.33 | –
7 | > 100 | > 100 | CCOC(=O)c1ccccc1OS(=O)(=O)[N-]C(=O)Nc1nc(C)cc(C)n1.[Na+] | 750 | 6.13 | –
8 | > 100 | > 100 | Cc1cc(Cl)nc(NC(=O)[N-]S(=O)(=O)Oc2ccccc2OCCI)n1.[Na+] | 885 | 6.05 | –
9 | > 100 | > 100 | CCOC(=O)c1ccccc1OS(=O)(=O)[N-]C(=O)Nc1nc(Br)cc(OC)n1.[Na+] | 10.8 | 7.96 | –

Row | SMILES | MIC (Candida albicans [2]) [µg/mL] | MIC (Candida albicans [3]) [µg/mL] | Ki [1] [nM] | pKi [1] | other results
10 | CCOc1ccccc1OS(=O)(=O)[N-]C(=O)Nc1nc(OC)cc(OC)n1.[Na+] | 0.625 | – | 22.1 | – | MIC (Candida parapsilosis [4]): 2.5 µg/mL; MIC (Candida albicans [5]): 1.25 µg/mL; MIC (Candida albicans [6]): 1.25 µg/mL; MIC (Candida albicans [7]): 1.25 µg/mL; MIC (Candida albicans [8]): 2.5 µg/mL; MIC (Saccharomyces cerevisiae [9]): 5 µg/mL; MIC (Candida albicans [10]): 1.25 µg/mL; MIC (Candida parapsilosis [11]): 2.5 µg/mL; MIC (Candida albicans [12]): 2.5 µg/mL; MIC (Saccharomyces cerevisiae [13]): 5 µg/mL; MIC (Candida albicans [14]): 1.25 µg/mL; MIC (Candida albicans [15]): 2.5 µg/mL; MIC (Candida parapsilosis [16]): 1.25 µg/mL; MIC (Saccharomyces cerevisiae [17]): 5 µg/mL

Reference: ChEMBL document CHEMBL4382231, “Chemical preparation, biological evaluation and 3D-QSAR of ethoxysulfuron derivatives as novel antifungal agents targeting acetohydroxyacid synthase” (Eur J Med Chem, 2019)
